Measured values as given in PMC12871931, “The importin‐alpha superfamily engages in ethylene signaling by shuttling [sequence] INSENSITIVE 2 from the endoplasmic reticulum to the nucleus” (The Febs Journal, 2025).

System: EIN2C^479–1294ΔNLS
Assay: In planta FLIM‐FRET, EIN2C^479–1294ΔNLS‐CER donor, IMPα3‐YFP acceptor
Format: cell-based, Arabidopsis thaliana
Settings: co‐expression of IMPα3‐YFP acceptor, negative control, t‐test
From the text: To further investigate the interaction between members of the IMPα superfamily and EIN2 in planta, we used in vivo fluorescence lifetime microscopy and Förster's resonance energy transfer (FLIM‐FRET). Accordingly, the C‐terminal part of EIN2 (EIN2C^479–1294) was fused to the fluorescent protein Cerulean (CER), serving as a donor, and the IMPα isoforms (IMPα1‐7) were fused to YELLOW FL[…] (YFP), serving as acceptors.
FRET efficiencies ranged between 2.8–4.6%. […] Given that nuclear import of the EIN2C^479–1294ΔNLS variant is abolished, we then tested whether this is due to an impaired interaction with IMPα proteins. […]
A modified version of a previously described procedure was used for the transient transformation of N. benthamiana. […] For co‐infiltration, bacteria solutions were mixed in equal quantities, and Agrobacterium strain GV3101:p19 expressing the p19 silencing inhibitor was added to each mix. […]
Fluorescence lifetime imaging was performed using a protocol described previously. Fluorescence lifetime was measured at a Zeiss LSM 780 confocal microscope (40× water immersion objective, Zeiss C‐PlanApo, NA 1.2). […] Photons were detected in both donor and acceptor channels simultaneously with Tau‐SPADs (PicoQuant, Berlin, Germany). […] Fluorescence lifetime images were acquired in the cytosol, ER, or nucleus in donor‐only samples and samples with IMPα1‐4 and IMPα7. […]

IMPα3‐YFP: A. thaliana IMPα3 fused to YFP, FRET acceptor
fluorescence lifetime of EIN2^479–1294ΔNLS‐CER: did not result in a reduction of the fluorescence lifetime
